Assay results as given in PubChem BioAssay (NCI).
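Assay format: 96-well plates, 48-hour exposure. TGI marks complete inhibition of growth.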

How the values were obtained:
Assay in all cases: NCI tumour cell line growth inhibition, 48 h
[1] = tested on: M19-MEL melanoma
[2] = tested on: SNB-75 CNS
[3] = tested on: SW-620 colon
[4] = tested on: KM12 colon
[5] = tested on: MALME-3M melanoma
[6] = tested on: SR leukemia
[7] = tested on: EKVX NSCLC
[8] = tested on: RPMI-8226 leukemia
[9] = tested on: MCF7 breast
[10] = tested on: COLO 205 colon
[11] = tested on: SK-OV-3 ovarian
[12] = tested on: TK-10 renal
[13] = tested on: UO-31 renal
[14] = tested on: BT-549 breast
[15] = tested on: ACHN renal
[16] = tested on: HOP-62 NSCLC
[17] = tested on: HCT-15 colon
[18] = tested on: HOP-18 NSCLC
[19] = tested on: NCI-H23 lung
[20] = tested on: MDA-MB-435
[21] = tested on: DMS 273 small cell lung
[22] = tested on: SF-268 CNS
[23] = tested on: A498 renal
[24] = tested on: 786-0 renal
[25] = tested on: CAKI-1 renal
[26] = tested on: MDA-MB-231 breast
[27] = tested on: HL-60(TB) leukemia
[28] = tested on: DLD-1 colon
[29] = tested on: UACC-62 melanoma
[30] = tested on: SK-MEL-2 melanoma
[31] = tested on: MOLT-4 leukemia
[32] = tested on: HT29 colon
[33] = tested on: OVCAR-8 ovarian
[34] = tested on: HOP-92 NSCLC
[35] = tested on: SK-MEL-5 melanoma
[36] = tested on: HS 578T breast
[37] = tested on: SF-539 CNS
[38] = tested on: MDA-N
[39] = tested on: UACC-257 melanoma
[40] = tested on: OVCAR-5 ovarian
[41] = tested on: NCI-H460 lung
[42] = tested on: T-47D breast
[43] = tested on: SNB-19 CNS
[44] = tested on: A549 NSCLC
[45] = tested on: SNB-78 CNS
[46] = tested on: U251 CNS
[47] = tested on: M14 melanoma
[48] = tested on: SN12C renal
[49] = tested on: CCRF-CEM leukemia
[50] = tested on: HCT-116 colon
[51] = tested on: RXF 393 renal
[52] = tested on: SF-295 CNS
[53] = tested on: HCC-2998 colon
[54] = tested on: K-562 leukemia
[55] = tested on: NCI-H522 lung
[56] = tested on: SK-MEL-28 melanoma
[57] = tested on: OVCAR-4 ovarian
[58] = tested on: IGROV1 ovarian
[59] = tested on: NCI-H226 lung
[60] = tested on: DU-145 prostate
[61] = tested on: LXFL 529 NSCLC
[62] = tested on: NCI/ADR-RES ovarian
[63] = tested on: LOX IMVI melanoma
[64] = tested on: PC-3 prostate
[65] = tested on: OVCAR-3 ovarian

CC(C)(Br)C(Br)CCC(=CCBr)CBr (mixture of isomers)
TGI [1]: 4.2 µM | TGI [2]: 10.9 µM | TGI [3]: 7.18 µM | TGI [4]: 10.2 µM | TGI [5]: 13.5 µM | TGI [6]: 4.69 µM | TGI [7]: 49.7 µM | TGI [8]: 4.83 µM | TGI [9]: 13.2 µM | TGI [10]: 10.7 µM | TGI [11]: 36.4 µM | TGI [12]: 22.5 µM | TGI [13]: 27.5 µM | TGI [14]: 5.62 µM | TGI [15]: 21.6 µM | TGI [16]: 8.89 µM | TGI [17]: 5.98 µM | TGI [18]: 31.9 µM | TGI [19]: 12.1 µM | TGI [20]: 14.1 µM | TGI [21]: 3.51 µM | TGI [22]: 4.85 µM | TGI [23]: 44.6 µM | TGI [24]: 3.84 µM | TGI [25]: 33.1 µM | TGI [26]: 26.3 µM | TGI [27]: 2.15 µM | TGI [28]: 11.2 µM | TGI [29]: 4.4 µM | TGI [30]: 9.32 µM | TGI [31]: 6.66 µM | TGI [32]: 9.16 µM | TGI [33]: 6.36 µM | TGI [34]: 13.3 µM | TGI [35]: 12.4 µM | TGI [36]: 49.7 µM | TGI [37]: 10.3 µM | TGI [38]: 4.68 µM | TGI [39]: 15.6 µM | TGI [40]: 37.2 µM | TGI [41]: 9.9 µM | TGI [42]: 8.53 µM | TGI [43]: 31.1 µM | TGI [44]: 28.3 µM | TGI [45]: 17.1 µM | TGI [46]: 8.26 µM | TGI [47]: 4.29 µM | TGI [48]: 4.29 µM | TGI [49]: 6.1 µM | TGI [50]: 4.41 µM | TGI [51]: 6.48 µM | TGI [52]: 10.9 µM | TGI [53]: 26.6 µM | TGI [54]: 6.7 µM | TGI [55]: 3.12 µM | TGI [56]: 6.86 µM | TGI [57]: 17 µM | TGI [58]: 8.9 µM | TGI [59]: 28.3 µM | TGI [60]: 22.3 µM | TGI [61]: 11.6 µM

O=C(Nc1ccc(Cl)cc1)NS(=O)(=O)c1coc2ccccc2c1=O
TGI [2]: > 10 µM | TGI [3]: > 10 µM | TGI [4]: > 10 µM | TGI [5]: > 10 µM | TGI [62]: > 10 µM | TGI [6]: > 10 µM | TGI [7]: > 10 µM | TGI [8]: > 10 µM | TGI [9]: > 10 µM | TGI [10]: > 10 µM | TGI [11]: > 10 µM | TGI [12]: > 10 µM | TGI [14]: > 10 µM | TGI [15]: > 10 µM | TGI [16]: > 10 µM | TGI [17]: > 10 µM | TGI [63]: > 10 µM | TGI [19]: > 10 µM | TGI [20]: > 10 µM | TGI [22]: > 10 µM | TGI [64]: > 10 µM | TGI [23]: > 10 µM | TGI [24]: > 10 µM | TGI [25]: > 10 µM | TGI [26]: > 10 µM | TGI [27]: > 10 µM | TGI [29]: > 10 µM | TGI [30]: > 10 µM | TGI [31]: > 10 µM | TGI [32]: > 10 µM | TGI [33]: > 10 µM | TGI [34]: > 10 µM | TGI [35]: > 10 µM | TGI [36]: > 10 µM | TGI [37]: > 10 µM | TGI [38]: > 10 µM | TGI [39]: > 10 µM | TGI [40]: > 10 µM | TGI [41]: > 10 µM | TGI [42]: > 10 µM | TGI [43]: > 10 µM | TGI [44]: > 10 µM | TGI [46]: > 10 µM | TGI [47]: > 10 µM | TGI [65]: > 10 µM | TGI [48]: > 10 µM | TGI [49]: > 10 µM | TGI [50]: > 10 µM | TGI [51]: > 10 µM | TGI [52]: > 10 µM | TGI [53]: > 10 µM | TGI [55]: > 10 µM | TGI [56]: > 10 µM | TGI [57]: > 10 µM | TGI [58]: > 10 µM | TGI [59]: > 10 µM | TGI [60]: > 10 µM

C#CCSc1n[nH]c(-c2ccco2)n1
TGI [2]: > 100 µM | TGI [3]: > 100 µM | TGI [4]: > 100 µM | TGI [5]: > 100 µM | TGI [62]: > 100 µM | TGI [6]: > 100 µM | TGI [7]: > 100 µM | TGI [8]: > 100 µM | TGI [9]: > 100 µM | TGI [10]: > 100 µM | TGI [11]: > 100 µM | TGI [12]: > 100 µM | TGI [13]: 32 µM | TGI [14]: > 100 µM | TGI [15]: > 100 µM | TGI [16]: > 100 µM | TGI [17]: > 100 µM | TGI [63]: > 100 µM | TGI [19]: > 100 µM | TGI [20]: > 100 µM | TGI [22]: > 100 µM | TGI [64]: > 100 µM | TGI [23]: > 100 µM | TGI [24]: > 100 µM | TGI [25]: > 100 µM | TGI [26]: > 100 µM | TGI [27]: > 100 µM | TGI [29]: > 100 µM | TGI [30]: > 100 µM | TGI [31]: > 100 µM | TGI [32]: > 100 µM | TGI [33]: > 100 µM | TGI [34]: > 100 µM | TGI [35]: > 100 µM | TGI [36]: > 100 µM | TGI [37]: > 100 µM | TGI [38]: > 100 µM | TGI [39]: > 100 µM | TGI [40]: > 100 µM | TGI [41]: > 100 µM | TGI [42]: > 100 µM | TGI [43]: > 100 µM | TGI [44]: > 100 µM | TGI [46]: > 100 µM | TGI [47]: > 100 µM | TGI [65]: > 100 µM | TGI [48]: > 100 µM | TGI [50]: > 100 µM | TGI [51]: > 100 µM | TGI [52]: > 100 µM | TGI [53]: > 100 µM | TGI [54]: > 100 µM | TGI [55]: > 100 µM | TGI [56]: > 100 µM | TGI [57]: > 100 µM | TGI [58]: > 100 µM | TGI [59]: > 100 µM | TGI [60]: > 100 µM

O=C(NCCc1ccccc1)[C@H]1CCCC[C@@H]1CCO
TGI [2]: > 100 µM | TGI [3]: > 100 µM | TGI [4]: > 100 µM | TGI [62]: > 100 µM | TGI [6]: > 100 µM | TGI [7]: > 100 µM | TGI [8]: > 100 µM | TGI [9]: > 100 µM | TGI [10]: > 100 µM | TGI [11]: > 100 µM | TGI [12]: > 100 µM | TGI [13]: > 100 µM | TGI [14]: > 100 µM | TGI [15]: > 100 µM | TGI [16]: > 100 µM | TGI [17]: > 100 µM | TGI [63]: > 100 µM | TGI [19]: > 100 µM | TGI [20]: > 100 µM | TGI [22]: > 100 µM | TGI [64]: > 100 µM | TGI [23]: > 100 µM | TGI [24]: > 100 µM | TGI [25]: > 100 µM | TGI [26]: > 100 µM | TGI [27]: > 100 µM | TGI [29]: > 100 µM | TGI [30]: > 100 µM | TGI [31]: > 100 µM | TGI [32]: > 100 µM | TGI [33]: > 100 µM | TGI [34]: > 100 µM | TGI [35]: > 100 µM | TGI [36]: > 100 µM | TGI [37]: > 100 µM | TGI [38]: > 100 µM | TGI [39]: > 100 µM | TGI [40]: > 100 µM | TGI [41]: > 100 µM | TGI [42]: > 100 µM | TGI [44]: > 100 µM | TGI [46]: > 100 µM | TGI [47]: > 100 µM | TGI [65]: > 100 µM | TGI [48]: > 100 µM | TGI [49]: > 100 µM | TGI [50]: > 100 µM | TGI [51]: > 100 µM | TGI [52]: > 100 µM | TGI [53]: > 100 µM | TGI [54]: > 100 µM | TGI [55]: > 100 µM | TGI [56]: > 100 µM | TGI [57]: > 100 µM | TGI [58]: > 100 µM | TGI [59]: > 100 µM | TGI [60]: > 100 µM
